According to PubChem BioAssay AID248 (DTP/NCI, 2004):
Where “and” joins values, the source holds several entries; their conditions need not be identical. Equal values may be shown once. Inconclusive results and toxic doses are left out. Rule as the data show it: active = T/C of 150% or more; inactive = T/C below 125%.

Tested on: L1210 leukemia ip in BDF1 mice, survival T/C
Experiment: NCI In Vivo Anticancer Drug Screen. Data for tumor model L1210 Leukemia (intraperitoneal) in B6D2F1 (BDF1) mice
Conditions: endpoint: mean survival time, higher = longer survival
In short: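 Value reflects the ratio of survival in compound-treated mice to survival in vehicle-treated controls, with both groups carrying the same transplanted tumor.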

[1] = dose: 50.0 mg/kg/injection, schedule: Q01DX001 (ip), vehicle: carboxymethylcellulose (CMC)
[2] = dose: 100.0 mg/kg/injection, schedule: Q01DX001 (ip), vehicle: carboxymethylcellulose (CMC)
[3] = dose: 100.0 mg/kg/injection, schedule: Q01DX001 (ip), vehicle: saline
[4] = dose: 100.0 mg/kg/injection, schedule: Q04DX003 (ip), vehicle: saline with Tween-80
[5] = dose: 200.0 mg/kg/injection, schedule: Q01DX001 (ip), vehicle: carboxymethylcellulose (CMC)
[6] = dose: 200.0 mg/kg/injection, schedule: Q04DX003 (ip), vehicle: saline with Tween-80
[7] = dose: 100.0 mg/kg/injection, schedule: Q01DX009 (ip), vehicle: Klucel (hydroxypropylcellulose) (HPC)
[8] = dose: 100.0 mg/kg/injection, schedule: Q04DX003 (ip), vehicle: Klucel (hydroxypropylcellulose) (HPC)
[9] = dose: 200.0 mg/kg/injection, schedule: Q01DX009 (ip), vehicle: Klucel (hydroxypropylcellulose) (HPC)
[10] = dose: 200.0 mg/kg/injection, schedule: Q04DX003 (ip), vehicle: Klucel (hydroxypropylcellulose) (HPC)
[11] = dose: 400.0 mg/kg/injection, schedule: Q01DX009 (ip), vehicle: Klucel (hydroxypropylcellulose) (HPC)
[12] = dose: 400.0 mg/kg/injection, schedule: Q04DX003 (ip), vehicle: Klucel (hydroxypropylcellulose) (HPC)
[13] = dose: 400.0 mg/kg/injection, schedule: Q01DX001 (ip), vehicle: carboxymethylcellulose (CMC)
[14] = dose: 200.0 mg/kg/injection, schedule: Q01DX001 (ip), vehicle: saline
[15] = dose: 400.0 mg/kg/injection, schedule: Q01DX001 (ip), vehicle: saline
[16] = dose: 100.0 mg/kg/injection, schedule: Q01DX009 (ip), vehicle: saline with Tween-80
[17] = dose: 200.0 mg/kg/injection, schedule: Q01DX009 (ip), vehicle: saline with Tween-80
[18] = dose: 400.0 mg/kg/injection, schedule: Q01DX009 (ip), vehicle: saline with Tween-80
[19] = dose: 400.0 mg/kg/injection, schedule: Q04DX003 (ip), vehicle: saline with Tween-80
[20] = dose: 100.0 mg/kg/injection, schedule: Q01DX001 (ip), vehicle: Klucel (hydroxypropylcellulose) (HPC)
[21] = dose: 200.0 mg/kg/injection, schedule: Q01DX001 (ip), vehicle: Klucel (hydroxypropylcellulose) (HPC)
[22] = dose: 400.0 mg/kg/injection, schedule: Q01DX001 (ip), vehicle: Klucel (hydroxypropylcellulose) (HPC)
[23] = dose: 100.0 mg/kg/injection, schedule: Q01DX009 (ip), vehicle: saline
[24] = dose: 100.0 mg/kg/injection, schedule: Q04DX002 (ip), vehicle: Klucel (hydroxypropylcellulose) (HPC)
[25] = dose: 200.0 mg/kg/injection, schedule: Q04DX002 (ip), vehicle: Klucel (hydroxypropylcellulose) (HPC)

Measured: T/C

Nc1ncnc2c(C3OC(CO)C(O)C3O)[nH]nc12 (configuration not stated)
inactive: dose: 5.0 mg/kg/injection, schedule: Q01DX015 (ip), vehicle: carboxymethylcellulose (CMC) 95 % of control | dose: 10.0 mg/kg/injection, schedule: Q01DX015 (ip), vehicle: carboxymethylcellulose (CMC) 109 % of control | dose: 12.5 mg/kg/injection, schedule: Q01DX009 (ip), vehicle: saline with Tween-80 119 % of control | dose: 20.0 mg/kg/injection, schedule: Q01DX015 (ip), vehicle: carboxymethylcellulose (CMC) 111 % of control | dose: 25.0 mg/kg/injection, schedule: Q01DX009 (ip), vehicle: saline with Tween-80 98 % of control | [1] 109 % of control | [2] 111 % of control | [3] 108 % of control | [4] 114 % of control | dose: 133.0 mg/kg/injection, schedule: Q04DX003 (ip), vehicle: saline with Tween-80 100 % of control and 117 % of control | [5] 115 % of control | [6] 111 % of control | dose: 300.0 mg/kg/injection, schedule: Q04DX003 (ip), vehicle: saline with Tween-80 88 % of control

CSC1CCCC(=O)C1 (configuration not stated)
inactive: [7] 98 % of control | [8] 96 % of control | [9] 101 % of control | [10] 97 % of control | [11] 96 % of control | [12] 105 % of control

CCCCN1C(=O)NC(=O)C1c1ccsc1 (configuration not stated)
inactive: [2] 103 % of control | [5] 94 % of control | [13] 100 % of control

O=C1Nc2cccc3cc(NCC(O)CCCl)cc1c23 (configuration not stated)
inactive: [3] 90 % of control | [14] 89 % of control | [15] 100 % of control

O=S1(=O)CC(Cl)C(I)C1 (configuration not stated)
inactive: [16] 102 % of control | [17] 109 % of control

O=c1[nH]c(-c2ccccc2)ncc1OCc1ccccc1
inactive: [1] 91 % of control | [2] 100 % of control | [5] 96 % of control | [13] 89 % of control

C=C(C)C(=O)O (tested in a mixture with another compound)
inactive: dose: 100.0 mg/kg/injection, schedule: Q01DX Z (ip), vehicle: saline 105 % of control | dose: 200.0 mg/kg/injection, schedule: Q01DX Z (ip), vehicle: saline 89 % of control

CC(=O)c1cccc(NC(=O)Oc2ccc(-c3ccccc3)cc2)c1
inactive: dose: 100.0 mg/kg/injection, schedule: Q01DX001 (ip), vehicle: saline with Tween-80 98 % of control | [16] 100 % of control and 90 % of control | dose: 100.0 mg/kg/injection, schedule: Q04DX002 (ip), vehicle: saline with Tween-80 96 % of control and 98 % of control | [4] 90 % of control | dose: 200.0 mg/kg/injection, schedule: Q01DX001 (ip), vehicle: saline with Tween-80 90 % of control | [17] 95 % of control | dose: 200.0 mg/kg/injection, schedule: Q04DX002 (ip), vehicle: saline with Tween-80 93 % of control and 98 % of control | [6] 92 % of control | [18] 90 % of control | dose: 400.0 mg/kg/injection, schedule: Q04DX002 (ip), vehicle: saline with Tween-80 91 % of control | [19] 93 % of control

C1=C\CCC2(OCCO2)C2(CC/1)OCCO2
inactive: dose: 50.0 mg/kg/injection, schedule: Q04DX003 (ip), vehicle: Klucel (hydroxypropylcellulose) (HPC) 100 % of control | [20] 111 % of control | [7] 104 % of control | [8] 100 % of control | [21] 109 % of control | [9] 98 % of control | [10] 97 % of control | [22] 105 % of control | [11] 98 % of control | [12] 95 % of control

NC(=S)C(=S)NCCO
inactive: [16] 103 % of control | [4] 100 % of control | [17] 94 % of control | [6] 93 % of control | [18] 100 % of control | [19] 93 % of control

CCOc1cccc(OC(C)=O)c1
inactive: dose: 75.0 mg/kg/injection, schedule: Q01DX001 (ip), vehicle: carboxymethylcellulose (CMC) 103 % of control | dose: 150.0 mg/kg/injection, schedule: Q01DX001 (ip), vehicle: carboxymethylcellulose (CMC) 90 % of control

CC1=CC(=O)C2(C)C(C)=C(C)C12C (configuration not stated)
inactive: dose: 50.0 mg/kg/injection, schedule: Q04DX003 (ip), vehicle: saline with Tween-80 99 % of control | dose: 75.0 mg/kg/injection, schedule: Q01DX001 (ip), vehicle: saline 105 % of control | [4] 94 % of control | dose: 150.0 mg/kg/injection, schedule: Q01DX001 (ip), vehicle: saline 111 % of control | dose: 300.0 mg/kg/injection, schedule: Q01DX001 (ip), vehicle: saline 97 % of control

CC(O)C(C)Cl (configuration not stated)
inactive: dose: 50.0 mg/kg/injection, schedule: Q01DX009 (ip), vehicle: saline 100 % of control | [23] 103 % of control

CC/C(C)=C(/C(=O)O)c1ccccc1
inactive: [4] 91 % of control | [6] 94 % of control | [19] 94 % of control

CN(C)C(=S)SCCC(=O)O
inactive: [24] 94 % of control | dose: 100.0 mg/kg/injection, schedule: Q04DX002 (ip), vehicle: saline 103 % of control | [25] 88 % of control | dose: 200.0 mg/kg/injection, schedule: Q04DX002 (ip), vehicle: saline 100 % of control | dose: 400.0 mg/kg/injection, schedule: Q04DX002 (ip), vehicle: saline 100 % of control

CCOC(=O)Cc1c(C)c2cc(C(=O)c3ccccc3)c(O)cc2oc1=O
inactive: [3] 98 % of control | [14] 96 % of control | [15] 93 % of control

O=[N+]([O-])c1ccc(NCc2ccccc2O)cc1
inactive: dose: 75.0 mg/kg/injection, schedule: Q04DX003 (ip), vehicle: other 110 % of control | [20] 101 % of control | dose: 150.0 mg/kg/injection, schedule: Q04DX003 (ip), vehicle: other 97 % of control | [21] 106 % of control | dose: 300.0 mg/kg/injection, schedule: Q04DX003 (ip), vehicle: other 103 % of control | [22] 101 % of control

Cc1cc(O)cc(=O)o1
inactive: [7] 97 % of control and 89 % of control | [8] 101 % of control and 86 % of control | [9] 95 % of control and 100 % of control | [10] 101 % of control and 103 % of control | [11] 94 % of control and 100 % of control | [12] 92 % of control and 102 % of control

O=CN(Cc1cnccn1)Cc1cnccn1
inactive: [23] 96 % of control | dose: 100.0 mg/kg/injection, schedule: Q04DX003 (ip), vehicle: saline 93 % of control | dose: 200.0 mg/kg/injection, schedule: Q01DX009 (ip), vehicle: saline 98 % of control | dose: 200.0 mg/kg/injection, schedule: Q04DX003 (ip), vehicle: saline 96 % of control | dose: 400.0 mg/kg/injection, schedule: Q01DX009 (ip), vehicle: saline 94 % of control | dose: 400.0 mg/kg/injection, schedule: Q04DX003 (ip), vehicle: saline 96 % of control

CC(CC(=O)c1cc(Cl)ccc1O)CC(C)(C)C (configuration not stated)
inactive: dose: 75.0 mg/kg/injection, schedule: Q01DX009 (ip), vehicle: Klucel (hydroxypropylcellulose) (HPC) 114 % of control | [24] 97 % of control | dose: 150.0 mg/kg/injection, schedule: Q01DX009 (ip), vehicle: Klucel (hydroxypropylcellulose) (HPC) 97 % of control | [25] 93 % of control | dose: 300.0 mg/kg/injection, schedule: Q01DX009 (ip), vehicle: Klucel (hydroxypropylcellulose) (HPC) 100 % of control | dose: 400.0 mg/kg/injection, schedule: Q04DX002 (ip), vehicle: Klucel (hydroxypropylcellulose) (HPC) 104 % of control

CS(=O)CC(=O)c1ccc(C(=O)O)cc1 (configuration not stated)
inactive: dose: 100.0 mg/kg/injection, schedule: Q04DX003 (ip), vehicle: other 107 % of control | dose: 200.0 mg/kg/injection, schedule: Q04DX003 (ip), vehicle: other 98 % of control | dose: 400.0 mg/kg/injection, schedule: Q04DX003 (ip), vehicle: other 101 % of control
